The test system of one data set is rats. Briefly: Single dose oral toxicity test using rats. Format: in vivo, rat. How it is done:
(§1) In order to evaluate the safety of the PPAR-α activator compound according to the present invention for application as a skin external preparation, an animal toxicity test and a human patch test were performed.
(§2) To perform this evaluation, a single dose oral toxicity test using rats, a skin irritation test using rabbits, a skin sensitization test using guinea pigs and an ophthalmic mucous membrane irritation test using rabbits were performed as toxicity tests for PC-9S in animals. Those tests were performed based on “Toxicity Test Standards for Pharmaceutical Products” disclosed by the Korea Food & Drug Administration. Additionally, a human patch test for PC-9S was carried out on 30 subjects (average age: 24.1). […] However, when evaluating the overall results obtained from the other toxicity tests and the human patch test, it was considered that the pseudo-ceramide compound would not pose a safety problem.

Data set [1] has as its system rabbits. Briefly: Skin irritation test using rabbits. Type of data set: in vivo, rabbit. How it is done:
as §1, §2

Another data set deals with guinea pigs. Briefly: Skin sensitization test using guinea pigs. Type of data set: in vivo, guinea pig. How it is done:
as §1, §2

The test system of data set [2] is rabbits. Briefly: Ophthalmic mucous membrane irritation test using rabbits. Type of data set: in vivo, rabbit. How it is done: as §1, §2
A further data set concerns human skin. Briefly: Human patch test. Format: in vivo. The conditions noted are these: 30 subjects. How it is done:
as §1, §2

On to `CCCCCCCCCCCCCCCCCC(=O)C(CCCCCCCCCCCCCCCC)C(=O)NCCO` (stereo not drawn) [PC-9S], for which the “Single dose oral toxicity test (toxicity test) result” value in the data set on rats is recorded as “No irritation”. Moreover, the “Skin irritation test using rabbits result” value in the data set on rabbits [1] is recorded as “slight skin irritation”. Moreover, in the data set with guinea pigs, the “Skin sensitization test using guinea pigs result” value is listed as “No irritation”. Further, the “Ophthalmic mucous membrane irritation test using rabbits result” value in the data set with rabbits [2] was “No irritation”. The “Human patch test result” value with human skin (1% PC-9S) and in the data set on human skin (10% PC-9S) was “No irritation” each time.

Values taken from patent US20100173995A1, “Use of PPAR-alpha activator as inflammatory skin disease-treating agent and method for treating skin diseases using the same” (Neopharm Co., Ltd., priority 2009, published 2010).
